Experimental data reported in patent US7485642B2, “Method for treating septic shock” (Orion Corporation, priority 2000, dated 2009).

Tested on: porcine model of endotoxin shock
Experiment: porcine model of endotoxin shock
Type: in vivo, landrace pigs
Protocol: 20 kg landrace pigs were anesthetized and catheterized. After baseline measurements 8 pigs received 200 μg/kg levosimendan as a 10 minute bolus followed by an infusion of 200 μg/kg/hour. 9 animals served as controls.
In the second phase of the experiment the animals were given an infusion of endotoxin (from E. Coli bacteria) 30 minutes after the start of the bolus dose of levosimendan. The endotoxin infusion was maintained for 3 hours and the levosimendan infusion was maintained throughout the experiment until 5 hours after onset of endoxemia. Comparison between the two groups was made with ANOVA.
The changes in the cardiac index, splanchnic (portal) blood flow index, portal venous blood lactate and pulmonary vascular resistance are shown in FIGS. 1-4. In the Figures, (−0.5 h) means the start of levosimendan bolus and (0 h) the start of endotoxin infusion.

[1] = porcine model of endotoxin shock, 200 μg/kg 10 minute bolus followed by infusion of 200 μg/kg/hour, E. Coli endotoxin infusion 3 hours

With `CC1CC(=O)NN=C1c1ccc(NN=C(C#N)C#N)cc1` (single isomer, unassigned; (-)) [levosimendan, (−)-[[4-(1,4,5,6-tetrahydro-4-methyl-6-oxo-3-pyridazinyl)phenyl]hydrazono]propanedinitrile] the survival (8 levosimendan treated pigs, until 5 hours after onset of endotoxemia) was “All levosimendan treated animals survived”, the “endotoxin-induced decreases in cardiac output” value [1] was “counteracts” and the endotoxin-induced splanchnic hyperperfusion [1] was “counteracts endotoxin-induced splanchnic hyperperfusion”. The “endotoxin-induced circulatory disorders (cardiac index, portal blood flow index, portal venous blood lactate, pulmonary vascular resistance; FIGS. 1-4)” value (vs control, ANOVA, until 5 hours after onset of endotoxemia) was “can significantly counteract endotoxin-induced circulatory disorders”.
